Results reported in the NIST ThermoML archive (doi:10.1021/je901020a).
Several values for one entry are separate records, joined by “and”; a condition that tells them apart may be missing. Identical values can stand only once.

What was measured:
[1] = refractive index (Na D-line) (dimensionless); conditions: 101.33 kPa, Liquid, Standard Abbe refractometry
[2] = 101 kPa, Liquid; for speed of sound: Pulse-echo method
[3] = refractive index (Na D-line) (dimensionless); xn = mol fraction of the nth substance listed; conditions: 101 kPa, Liquid, Standard Abbe refractometry
[4] = xn = mol fraction of the nth substance listed; conditions: 101 kPa, Liquid; for speed of sound: Pulse-echo method

C1CCCCCCC1 [cyclooctane]
Conditions | mass density, [2] [kg/m3] | refractive index, [1] | speed of sound, [2]
298.15 K | 831.5 | 1.45598 | 1391 m/s
313.15 K | 819.2 | 1.44877 | 1326 m/s and 1325 m/s

CC1CCCCC1 [methylcyclohexane]
Conditions | mass density, [2] | refractive index, [1] | speed of sound, [2] [m/s]
298.15 K | 765 kg/m3 and 765.1 kg/m3 | 1.42062 | 1215
313.15 K | 751.9 kg/m3 | 1.41274 and 1.41274 | 1150

C1CCCCC1 [cyclohexane]
Conditions | mass density, [2] | refractive index, [1] | speed of sound, [2] [m/s]
298.15 K | 773.9 kg/m3 | 1.4236 | 1255
313.15 K | 759.6 kg/m3 and 759.59 kg/m3 | 1.41516 | 1182

C1CCCC1 [cyclopentane]
Conditions | mass density, [2] [kg/m3] | refractive index, [1] | speed of sound, [2] [m/s]
298.15 K | 740 | 1.40292 | 1204
313.15 K | 725 | 1.39456 | 1130

Cc1ccccc1C [1,2-dimethylbenzene]
Conditions | mass density, [2] [kg/m3] | refractive index, [1] | speed of sound, [2]
298.15 K | 875.4 | 1.50262 | 1350 m/s
313.15 K | 862.9 | 1.49466 | 1290 m/s and 1289 m/s

Cc1cc(C)cc(C)c1 [1,3,5-trimethylbenzene]
Conditions | mass density, [2] [kg/m3] | refractive index, [1] | speed of sound, [2] [m/s]
298.15 K | 861.1 | 1.49693 | 1336
313.15 K | 848.8 | 1.48923 | 1277

Cc1ccc(C)cc1 [1,4-dimethylbenzene]
Conditions | mass density, [2] [kg/m3] | refractive index, [1] | speed of sound, [2] [m/s]
298.15 K | 856.6 | 1.49312 | 1310
313.15 K | 843.5 | 1.48444 | 1248

Cc1cccc(C)c1 [1,3-dimethylbenzene]
Conditions | mass density, [2] [kg/m3] | refractive index, [1] | speed of sound, [2] [m/s]
298.15 K | 859.8 | 1.49466 | 1321
313.15 K | 846.9 | 1.48653 | 1259

Cc1cccc(C)c1 [1,3-dimethylbenzene] + C1CCCCC1
Conditions | mass density, [4] [kg/m3] | refractive index, [3] | speed of sound, [4] [m/s]
298.15 K, x2 = 0 | 859.8 | 1.49466 | 1321
298.15 K, x2 = 0.0346 | 856.9 | 1.49219 | 1317
298.15 K, x2 = 0.096 | 851.4 | 1.48781 | 1310
298.15 K, x2 = 0.1974 | 842.2 | 1.48052 | 1300
298.15 K, x2 = 0.2879 | 834.1 | 1.47391 | 1291
298.15 K, x2 = 0.3982 | 824.1 | 1.46589 | 1281
298.15 K, x2 = 0.5005 | 815 | 1.45851 | 1273
298.15 K, x2 = 0.6019 | 806.2 | 1.45128 | 1267
298.15 K, x2 = 0.6976 | 797.9 | 1.44447 | 1261
298.15 K, x2 = 0.7985 | 789.4 | 1.43723 | 1257
298.15 K, x2 = 0.9021 | 781.1 | 1.42992 | 1254
298.15 K, x2 = 0.9509 | 777.4 | 1.42673 | 1254
313.15 K, x2 = 0 | 846.9 | 1.48653 | 1259
313.15 K, x2 = 0.0355 | 843.7 | 1.48408 | 1255
313.15 K, x2 = 0.095 | 838.3 | 1.47988 | 1248
313.15 K, x2 = 0.1903 | 829.6 | 1.47305 | 1238
313.15 K, x2 = 0.2937 | 820.2 | 1.46566 | 1227
313.15 K, x2 = 0.3969 | 810.8 | 1.45826 | 1217
313.15 K, x2 = 0.4919 | 802.3 | 1.45153 | 1209
313.15 K, x2 = 0.5952 | 793.1 | 1.44402 | 1200
313.15 K, x2 = 0.6963 | 784.3 | 1.43677 | 1193
313.15 K, x2 = 0.7968 | 775.5 | 1.42954 | 1187
313.15 K, x2 = 0.8984 | 767.3 | 1.42246 | 1183
313.15 K, x2 = 0.9496 | 763.45 | 1.41885 | 1182
